Measured values as given in patent EP0057900B1, “Animal feed additive for improving growth” (Dr. Karl Thomae GmbH, priority 1981, dated 1982).
Where a name gives a salt, the structure may show the parent alone.

Key:
[1] = Acute toxicity in mice after i.v. administration; format: in vivo, Mäusen; conditions: mouse, in vivo, iv, mean weight 22 g, i. v. in physiological saline, dose at which 50% of animals died, observation time 14 days, Litchfield and Wilcoxon
Excerpt: (§1) Die akute Toxizität der zu untersuchenden Substanzen, welche in physiologischer Kochsalzlösung gelöst wurden, wurde an Mäusen mit einem durchschnittlichen Gewicht von 22 g nach i. v. Gabe (0.1 mt/10 g) bestimmt. Es wurde die LD50, die Dosis bei welcher 50% der Tiere nach einer Beobachtungszeit von 14 Tagen verstarben, nach der Methode von Litchfield und Wilcoxon (J. Pharmacol. exp. Ther. 96, 99-113 (1949)) berechnet.

Mäusen = assay: Acute toxicity in mice after i.v. administration; format: in vivo; conditions: mean weight 22 g, i. v. in physiological saline, dose at which 50% of animals died, observation time 14 days, Litchfield and Wilcoxon
Excerpt: as §1

[2] = tested on: Fettsäuregehalt des Blutes; assay: Lipolytic effect in rabbits (blood fatty acid content, method of Duncombe); format: in vivo, Kaninchen; conditions: Oryctolagus cuniculus, iv; male and female rabbits, mean weight 2,3 kg; i. v. in physiological saline; dose causing a 50% reduction of blood fatty acid content; calculated according to Fieler; read-out: ED50 µg/kg i. v.
Excerpt: Beispielsweise wurde die lipolytische Wirkung der Verbindungen • A = 1-(4-Amino-3-cyan-5-fluor-phenyl)-2-tert.butylamino-äthanol-hydrochlorid, • B = 1-(4-Amino-3-cyan-5-fluor-phenyl)-2-isopropylamino-äthanol-hydrochforid, • C = 1-(4-Amino-3-cyan-5-fluor-phenyl)-2-cyclobutylamino-äthanol-hydrochlorid, • D = 1-(4-Amino-3-chlor-5-cyan-phenyl)-2-isopropylamino-äthanol-hydrochlorid, • E = 1-(4-Amino-3-chlor-5-cyan-phenyl)-2-cyclobutylamino-äthanol-hydrochlorid, • F = 1-(4-Amino-3-chlor-5-cyan-phenyl)-2-cyclopentylamino-äthanol-hydrochlorid und • G = 1-(4-Amino-3-chlor-5-trifluormethylphenyl)-2-cyclobutylamino-äthanor-hydrochlorid
an Kaninchen wie folgt geprüft:
Die zu untersuchenden Substanzen wurden männlichen und weiblichen Kaninchen mit einem durchschnittlichen Gewicht von 2,3 kg, gelöst in physiologischer Kochsalzlösung i. v. injiziert (0,2 mg/kg). Der Fettsäuregehalt des Blutes wurde nach der Methode von Duncombe (Biochem. J. 88, 7-10 (1963)) bestimmt. Es wurde die EDso, die Dosis, die eine 50%ige Senkung des Fettsäuregehaltes bewirkt, nach Fieler (Quart. J. Pharm. Pharmacol. 17, 117―123 (1964)) berechnet.

| SMILES | LD50 at 336 h [1] [mg/kg] | LD50 mg/kg i. v. (Mäusen) | ED50 [2] [µg/kg] |
| --- | --- | --- | --- |
| CC(C)(C)NCC(O)c1cc(F)c(N)c(C#N)c1 (stereo not shown) [A, 1-(4-Amino-3-cyan-5-fluor-phenyl)-2-tert.butylamino-äthanol-hydrochlorid] | 73.6 | – | – |
| CC(C)NCC(O)c1cc(F)c(N)c(C#N)c1 (stereo not shown) [B, 1-(4-Amino-3-cyan-5-fluor-phenyl)-2-isopropylamino-äthanol-hydrochforid] | – | 66,4 mg/kg | – |
| CC(C)NCC(O)c1cc(Cl)c(N)c(C#N)c1 (stereo not shown) [D, 1-(4-Amino-3-chlor-5-cyan-phenyl)-2-isopropylamino-äthanol-hydrochlorid] | 81 | – | – |
| N#Cc1cc(C(O)CNC2CCCC2)cc(Cl)c1N (stereo not shown) [F, 1-(4-Amino-3-chlor-5-cyan-phenyl)-2-cyclopentylamino-äthanol-hydrochlorid] | – | 39,1 mg/kg | 0.16 |
| Nc1c(Cl)cc(C(O)CNC2CCC2)cc1C(F)(F)F (stereo not shown) [G, 1-(4-Amino-3-chlor-5-trifluormethylphenyl)-2-cyclobutylamino-äthanor-hydrochlorid] | – | – | 0.46 |
| N#Cc1cc(C(O)CNC2CCC2)cc(Cl)c1N (stereo not shown) [Verbindung E, 1-(4-Amino-3-chlor-5-cyan-phenyl)-2-cyclobutylamino-äthanol-hydrochlorid] | 43.9 | – | – |
